Target: T1, NBS mutant NALP1 (Homo sapiens, UniProt Q9C000, G339E/K340A)
T1 construct: to generate full-length NALP1 in frame with EGFP; expressed in transfected cells; host or cells: HeLa cells, transient transfection; S-100 extract used
T1 sequence (Q9C000 1-1473 G339E/K340A): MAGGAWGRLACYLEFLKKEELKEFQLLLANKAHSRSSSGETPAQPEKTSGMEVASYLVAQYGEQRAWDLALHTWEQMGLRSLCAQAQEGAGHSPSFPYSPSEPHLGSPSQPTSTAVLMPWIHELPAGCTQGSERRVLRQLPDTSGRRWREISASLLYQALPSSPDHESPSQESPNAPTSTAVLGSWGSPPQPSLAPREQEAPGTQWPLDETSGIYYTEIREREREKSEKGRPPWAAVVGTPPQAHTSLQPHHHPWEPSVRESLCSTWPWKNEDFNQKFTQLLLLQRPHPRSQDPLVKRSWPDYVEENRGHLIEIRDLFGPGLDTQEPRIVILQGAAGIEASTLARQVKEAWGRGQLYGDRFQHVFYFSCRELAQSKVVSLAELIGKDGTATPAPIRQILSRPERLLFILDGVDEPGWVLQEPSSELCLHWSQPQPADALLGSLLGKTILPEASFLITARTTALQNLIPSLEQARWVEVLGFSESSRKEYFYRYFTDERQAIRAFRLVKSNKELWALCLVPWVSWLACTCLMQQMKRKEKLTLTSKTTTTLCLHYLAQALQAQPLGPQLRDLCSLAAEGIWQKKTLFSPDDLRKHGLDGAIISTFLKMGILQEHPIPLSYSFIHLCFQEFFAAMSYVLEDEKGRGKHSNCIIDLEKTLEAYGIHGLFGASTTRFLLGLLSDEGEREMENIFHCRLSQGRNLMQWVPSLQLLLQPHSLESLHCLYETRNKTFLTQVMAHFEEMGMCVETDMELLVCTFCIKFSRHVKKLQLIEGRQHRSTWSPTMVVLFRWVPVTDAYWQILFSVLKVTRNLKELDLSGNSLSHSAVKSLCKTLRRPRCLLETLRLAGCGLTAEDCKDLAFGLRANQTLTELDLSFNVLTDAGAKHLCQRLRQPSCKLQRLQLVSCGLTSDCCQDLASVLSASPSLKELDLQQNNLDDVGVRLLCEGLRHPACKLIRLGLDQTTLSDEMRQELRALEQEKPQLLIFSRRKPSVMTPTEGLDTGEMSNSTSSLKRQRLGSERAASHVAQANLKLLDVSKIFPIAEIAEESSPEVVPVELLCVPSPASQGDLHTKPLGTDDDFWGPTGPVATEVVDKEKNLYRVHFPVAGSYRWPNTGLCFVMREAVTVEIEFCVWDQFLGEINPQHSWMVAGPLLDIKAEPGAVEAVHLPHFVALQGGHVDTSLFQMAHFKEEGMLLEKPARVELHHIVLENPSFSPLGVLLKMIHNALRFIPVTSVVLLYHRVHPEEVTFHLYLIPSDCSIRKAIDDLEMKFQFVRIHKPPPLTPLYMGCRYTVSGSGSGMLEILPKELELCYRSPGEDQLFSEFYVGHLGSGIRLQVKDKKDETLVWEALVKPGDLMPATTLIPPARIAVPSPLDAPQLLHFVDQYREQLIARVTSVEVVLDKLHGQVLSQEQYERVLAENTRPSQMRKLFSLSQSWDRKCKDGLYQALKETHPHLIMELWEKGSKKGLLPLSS
Experiment: Fluorimetric DEVDase (caspase-3) assay in HeLa cell extracts expressing NBS mutant NALP1-EGFP
Format: biochemical
Settings: 2 mM dATP, 2 mM MgCl2, 1 hour, Ac-DEVD-AMC substrate
Method: Cell extract preparation and fluorimetric assay of caspase activity. Preparation of cell extracts, dATP incubation and caspase-3 activities assays were performed as described by Liu et al. (1996). Briefly, HeLa cells were grown in DMEM, 10% FBS. Cells were plated in T175 flasks to 60% confluence. Control vector pEGFP or wild-type or NBS mutant NALP1-EGFP expression plasmids were transfected into HeLa cells using Lipofectamine Plus. Cells were collected in homogenization buffer (20 mM HEPES pH 7.5, 10 mM KCl, 1 mM sodium EDTA, […], 1 mM sodium EGTA, 0.1% CHAPS, 1 mM DTT, 0.1 mM PMSF and protease inhibitor cocktail tablets (Roche)), 24 hours after transfection. Cells were chilled on ice for 15 minutes and homogenized by douncing 30 times in a glass douncer. Samples were centrifuged at 1000×g for 10 minutes at 4° C. […] After 2 hours incubation, liberation of AMC (7-amino-4-methylcoumarin) from the substrate was monitored using excitation/emission wavelength pairs (λex/λem) of 380/460 nm using a SpectraFluor Plus instrument (Tecan). Triplicate samples were evaluated with or without specific inhibitors. […] Normalized data from multiple experiments were expressed as means±standard deviation. For each experiment, the expression of EGFP-tagged NALP1 proteins was analyzed by anti-GFP immunoblot and quantified by densitometry.

DEVDase activity, extracts with NBS mutant NALP1: did not respond
SMILES: Nc1ncnc2c1ncn2[C@H]1C[C@H](O)[C@@H](COP(=O)(O)OP(=O)(O)OP(=O)(O)O)O1 [dATP]
